For data set [1], the system named is ovarian cancer cells with (OVCAR8, OVCAR4) or without (OVSAHO, CAOV3) MYC-HSF1 amplification. As to the kind of experiment: Epigenetic inhibitor drug screen, cell viability (Cell Titer Blue). In kind it is cell-based. (Alamar Blue is a resazurin reagent that responds to reducing activity.)
In data set [2] the test system is HSF1 and MYC target genes in OVCAR8. As to the kind of experiment: RT-qPCR of HSF1 and MYC target genes after entinostat. As to conditions: OVCAR8, 24 hrs. The format is cell-based. As to the method: FIG. 6B is a bar graph depicting mRNA relative fold change in OVCAR8 cells treated with entinostat at the indicated doses for 24 hours. Total RNA from the cells was subjected to RT-qPCR or the indicated transcripts.
Results of this screen indicated 45 of the top 54 hits were compounds that targeted histone deacetylases (HDACs). (Table 1). To test the effect of HDAC inhibitors on cell lines having dual copy number gain in both MYC and HSF1, we treated OVCAR8 (positive for MYC-HSF1 amplification) for 24 hrs with an HDAC inhibitor, etinostat. Total RNA from treated cells was subjected to RTqPCR. To conduct the RTqPCR, RNA was extracted from cells using an RNA isolation kit with DNAse treatment (Zymo). RNA was subjected to reverse transcription using RT Master Mix (Applied Biosystems). qPCR was performed with SYBR Green Master Mix (Applied Biosystems) using a QuantStudio3 (Applied Biosystems). Experiments were performed in biological triplicate and analyzed using the […].
On the technique in general: Quantitative PCR measures a nucleic acid by following its amplification.

Data set [3] relates to MYC and HSF1 protein in OVCAR8 cells. As to the kind of experiment: Immunoblot of MYC and HSF1 after entinostat. As to conditions: OVCAR8, 24 hours. The format is cell-based. As to the method: FIG. 6C and FIG. 6D are immunoblots of OVCAR8 cells treated with entinostat at the indicated doses for 24 hours. Total protein from the cells was subjected to immunoblotting with the indicated antibodies.
Immunoblotting and co-immunoprecipitation was performed as described above. Antibodies for immunoblotting and immunoprecipitation included MYC (CST), HSF1 (CST), GAPDH (CST). […] Through the innovative method of screening potential therapeutics against cells having dual amplification of MYC and HSF1, Applicant was able to identify potential therapeutic targets, HDAC inhibitors, and therapeutics having increased efficacy against these cancer cells.
On the technique in general: Immunoblotting shows a protein as a band on a membrane.

In data set [4] the test system is cell lines with dual amplification (OVCAR8, SNU119, OVCAR4, and COV362). As to the kind of experiment: Volasertib IC50, cell viability, MYC-HSF1 dual amplified cell lines. The format is cell-based. The procedure:
(§1) PLK1 is an active therapeutic target with several compounds targeting this kinase inPLK1 inhibitor that has shown promise as an effective cancer therapy in early phase clinical trials (Rudolph et al. Clin Cancer Res 2009; 15:3094-102;Pujade-Lauraine et al. J Clin Oncol 2016;34:706-13; Xie et al. Am J Cancer Res 2015;5:3548-59). […] To assess whether a PLK1 inhibitor has specificity for MYC-HSFIdual-amplified ovarian cancer cells, the IC50 for volasertib was assessed in cell lines with dual amplification (OVCAR8, SNU119, OVCAR4, and COV362) and in cell lines without dual amplification (OVSAHO, CAOV3, PEO1, OVCAR3).
(§2) The effectiveness of volasertib on MYC-HSF1 dual amplified cancer cells was also analyzed in several cell growth models. […] Cell viability assays were performed with Cell Titer Blue (Promega) as we previously described (Carpenter et al. Oncotarget 2017;8:73947-63). Clonogenic growth assays were performed by seeding <1000 cells into 6-well plates and staining with crystal violet after 7 days of growth. Colonies were quantified using FIJI.

Data set [5] relates to cell lines without dual amplification (OVSAHO, CAOV3, PEO1, OVCAR3). As to the kind of experiment: Volasertib IC50, cell viability, non-amplified cell lines. As to conditions: average of OVSAHO, read-out: IC50 in non-amplified cells. The format is cell-based. The procedure:
as §1, §2

Data set [6] has as its system MYC and HSF1 protein in OVCAR8 cells. As to the kind of experiment: Immunoblot time course of MYC and HSF1 protein after volasertib. The format is cell-based. To be noted: OVCAR8, volasertib 1 nM, 0 to 18 hours. The procedure: (§3) Considering PLK1 phosphorylation previously indicated affects the protein stability of MYC and HSF1, it was tested whether volasertib affects MYC or HSF1 protein levels. A time course study was performed where samples were treated with volasertib for time ranges of 0 to 18hours. […] Similarly, the effect of volasertib was tested on the activity of HSF1 using an HSE luciferase reporter.
Immunoblotting and Immunoprecipitation: Immunoblotting and co-immunoprecipitation was performed as we have previously described (Lu et al., bioRxiv 2020:2020.08.31.275909). Antibodies for immunoblotting and immunoprecipitation included MYC (CST), HSF1 (CST), β-actin (CST), GAPDH (CST), FLAG (Sigma), and p-HSF1 (S326) (Abcam).

Data set [7] deals with HSF1 activity in OVCAR8 cells. As to the kind of experiment: HSE luciferase reporter assay. In kind it is cell-based. To be noted: OVCAR8, volasertib 1 nM, increasing time of treatment. As to the method:
FIG. 4E is a bar graph representing OVCAR8 cells subjected to HSE luciferase assay with treatment of volasertib (1 nM) for the indicated times.
as §3
Luciferase Reporter Assays: Luciferase reporter assays were performed as we previously described (Lu et al. bioRxiv 2020:2020.08.31.275909). The HSF1 activity reporter contains multiple heat shock element (HSE) motifs driving firefly luciferase. Experiments were performed with co-transfection of a constitutively active renilla reporter. Analysis was completed by dividing firefly activity by renilla activity.

The subject of data set [8] is MYC-HSF1 dual amplified cells (OVCAR8, OVCAR4, SNU119). As to the kind of experiment: Clonogenic growth assay. In kind it is cell-based. To be noted: 7 days, crystal violet. The procedure:
FIG. 5A depicts bar graphs showing clonogenic growth observed for OVCAR8, OVCAR4 and SNU119 cell lines subjected to the indicated dose of volasertib (BI-6727). Control cells were subjected to 1% DMSO instead of volasertib. Colonies were grown for 7 days prior to staining with crystal violet and quantification was completed with FIJI software.
as §2

The subject of data set [9] is OVCAR8 (MYC-HSF1 co-amplified) cells. As to the kind of experiment: Tumor spheroid growth, co-amplified cells. The format is cell-based. As to conditions: OVCAR8, 7 days. As to the method:
FIG. 5B and FIG. 5C represent OVCAR8 (MYC-HSF1 co-amplified) and CAOV3 (non-amplified) cells subjected to tumor spheroid growth in the presence or absence of volasertib at the indicated doses. Spheroids were quantified by manual counting. The impact volasertib on spheroid growth in the two different cell lines is shown photographically (FIG. 5B) and graphically (FIG. 5C).
Ovarian cancer cells (1000-2000) were seeded into 24-well ultra-low attachment plates (Corning) and grown in serum-free spheroid media as we previously described (Wang et al., Mol Cancer Ther 2021). Spheroids were grown in the presence or absence of volasertib for 7 days. Spheroids were quantified by manual counting.

In data set [10] the test system is OVCAR8 cells in the flank of nude mice. As to the kind of experiment: OVCAR8 flank tumor growth in nude mice. In kind it is in vivo. As to conditions: 15 or 20 mg/kg twice per week for five weeks. The procedure: (§4) FIG. 5D represents OVCAR8 cells (5e5) grown in the flank of nude mice until a volume between 50-100 mm^3 were achieved. Mice were then randomized to receive either vehicle, 15mg/kg, or 20 mg/kg volasertib twice per week. Tumor volume was measured with calipers (FIG. 5D) and body weight was measured (FIG. 5E) throughout the study.
(§5) Lastly, we evaluated the efficacy of the PLK1 inhibitor, volasertib, on tumor growth in vivo. OVCAR8 cells (5e5) were injected into the flank of nude mice and tumors were allowed to develop until 50-100 mm^3. Mice then received either vehicle (PBS) or 15 or 20 mg/kg volasertib twice per week for five weeks. Body weight and tumor volume were measured twice per week.

A short description of data set [11]: Body weight of tumor-bearing nude mice. As to conditions: 15 or 20 mg/kg twice per week for five weeks. The format is in vivo. As to the method: as §4, §5
The test system of another data set is ovarian cancer patients. As to conditions: cited from earlier work.
Setting [12] is: single agent, ovarian cancer patients.
Where [13] appears, read: 10 uM, 48 hrs, average relative cell viability (vs 1% DMSO) of non-amplified cells (OVSAHO, CAOV3) minus that of MYC-HSF1 amplified cells (OVCAR8, OVCAR4), positive = greater response in amplified cells.

Several values for one entry are separate records, joined by “and”; a condition that tells them apart may be missing. Equal entries are not always repeated. Where two headings read alike, the source gives them in different places.

On to `Nc1ccccc1NC(=O)c1ccc(CNC(=O)OCc2cccnc2)cc1` [Entinostat], for which the “Non Amp - AMP (POC) 10 uM” value turned out to be 52.31 POC in [1] (10 uM, 48 hrs, average relative cell viability (vs 1% DMSO) of non-amplified cells (OVSAHO, CAOV3) minus that of MYC-HSF1 amplified cells (OVCAR8, OVCAR4), positive = greater response in amplified cells, listed as Entinostat (MS-275, SNDX-275), 10 µM) and 65.06 POC in data set [1] (10 uM, 48 hrs, average relative cell viability (vs 1% DMSO) of non-amplified cells (OVSAHO, CAOV3) minus that of MYC-HSF1 amplified cells (OVCAR8, OVCAR4), positive = greater response in amplified cells, listed as MS-275 (entinostat), 10 µM). In addition, the “levels of HSF1 and MYC target genes (mRNA)” value in data set [2] is “significantly reduced levels of HSF1 and MYC target genes”. The “protein levels of MYC and HSF1” value in data set [3] is “reduced protein levels of both MYC and HSF1”.
A word on the IC50: it is the concentration that inhibits the measured activity by half. For the molecule `CC[C@@H]1C(=O)N(C)c2cnc(Nc3ccc(C(=O)N[C@H]4CC[C@H](N5CCN(CC6CC6)CC5)CC4)cc3OC)nc2N1C(C)C` [volasertib], the IC50 in data set [4] (average of OVCAR8, SNU119, OVCAR4, COV362, read-out: IC50 for volasertib in MYC-HSF1 dual amplified cells) turned out to be 0.033 µM; in data set [5], 7.8 µM. Moreover, in data set [4] (enhanced efficacy in dual amplified ovarian cancer cells), the “fold difference of IC50, non-amplified vs MYC-HSF1 dual amplified cells” value was > 200 fold and 200 fold. Further, the “MYC and HSF1 protein levels” value in [6] was “loss of MYC and HSF1 protein after 3hours of volasertib exposure”. In addition, in data set [7], the “HSF1 activity (HSE luciferase reporter)” value is “increasing inhibition of HSF1 activity”. For the same molecule, in [8], the clonogenic growth entry is recorded as “strong inhibition of clonogenic growth”. The “spheroid growth, MYC-HSF1 dual amplified cells” value in data set [9] is given as “inhibit spheroid growth”. In addition, in data set [10], the “tumor growth in vivo” value is “strongly regress tumor growth”. For the same molecule, the body weight entry in [11] is given as “no change in body weight”. The “toxicity and safety for use in humans” value in the data set with ovarian cancer patients (early phase clinical trials) was “favorable toxicity and safety”. In addition, the “24-week disease control rate” value in the data set with ovarian cancer patients (setting [12]) is on record as 30%. Further, the “patients with partial responses” value in the data set with ovarian cancer patients (setting [12]) is given as 13%. Further, in the data set on ovarian cancer patients (single agent, none in patients receiving cytotoxic chemotherapy), the “patients with progression-free survival for more than one year” value is 11%.
Take Inauhzin: the “Non Amp - AMP (POC) 10 uM” value in [1] (setting [13]) is reported as −0.3441 POC.
On to Oxamflatin, for which, in [1], the “Non Amp - AMP (POC) 10 uM” value is given as 24.33 POC.
On to SNS-314 Mesylate, for which, in data set [1] (setting [13]), the “Non Amp - AMP (POC) 10 uM” value turned out to be 1.355 POC.
For Sodium Phenylbutyrate, the “Non Amp - AMP (POC) 10 uM” value in data set [1] is −19.07 POC.

The values above are taken from patent US20250011881A1, “MYC-HSF1 DUAL AMPLIFICATION AS A BIOMARKER FOR CANCER TREATMENT” (The Trustees of Indiana University, priority 2023, published 2025).
